Values joined by “and” are separate entries in the source; they are usually repeats but may differ in a detail not shown here. Identical values can stand only once. After the bases stand the sugars from the 5' end (letter, count) and the backbone: PS all phosphorothioate, else s phosphorothioate and o phosphodiester by linkage. Methylation of C is not given here. e = 2'-O-(2-methoxyethyl) (MOE); k = constrained ethyl (cEt); d = 2'-deoxy (DNA)
Columns and labels:
SOD1 = conditions: ASO
MALAT1 = conditions: ASO, A431, 0.005 µM

## AGTGTTTAATGTTTATC (sugars e2 k2 d8 k2 e3, PS)
SOD1; HepG2, 0.1875 µM
  target mRNA inhibition: 46%
SOD1; HepG2, 0.75 µM
  target mRNA inhibition: 74%
SOD1; HepG2, 3 µM
  target mRNA inhibition: 84%
SOD1; HepG2, 5 µM
  target mRNA inhibition: 88%
SOD1; HepG2, 12 µM
  target mRNA inhibition: 81%

## CCTGCACTGGTACAGCC (sugars e3 k2 d7 k2 e3, PS)
SOD1; HepG2, 3 µM
  target mRNA inhibition: 17%

## CTTCAGCACGCACACGGCCT (sugars e5 d10 e5, PS)
SOD1; HepG2, 0.1875 µM
  target mRNA inhibition: 13%
SOD1; HepG2, 0.75 µM
  target mRNA inhibition: 23%
SOD1; HepG2, 3 µM
  target mRNA inhibition: 48%
SOD1; HepG2, 4 µM
  target mRNA inhibition: 57%
SOD1; HepG2, 12 µM
  target mRNA inhibition: 77%

## ATGTTTATTGGGCGATC (sugars e2 k2 d8 k2 e3, PS)
SOD1; HepG2, 0.1875 µM
  target mRNA inhibition: 15%
SOD1; HepG2, 0.75 µM
  target mRNA inhibition: 36%
SOD1; HepG2, 3 µM
  target mRNA inhibition: 79%
SOD1; HepG2, 4 µM
  target mRNA inhibition: 76%
SOD1; HepG2, 12 µM
  target mRNA inhibition: 95%

## TTTATTCACAGGCTTGA (sugars e2 k2 d9 k2 e2, PS)
SOD1; HepG2, 5 µM
  target mRNA inhibition: 55%

## CCAAGGGAATGTTTATT (sugars e3 k2 d7 k2 e3, PS)
SOD1; HepG2, 3 µM
  target mRNA inhibition: 36%

## ACTCTGAAAAAGTCACACAA (sugars e5 d10 e5, PS)
SOD1; HepG2, 5 µM
  target mRNA inhibition: 21%

## GTTTCTCACTACAGGTACTT (sugars e5 d10 e5, PS)
SOD1; HepG2, 5 µM
  target mRNA inhibition: 30%

## CCACTCTGGCCCCAAAC (sugars e3 k2 d7 k2 e3, PS)
SOD1; HepG2, 3 µM
  target mRNA inhibition: 17%

## CATTTCTACAGCTAGC (sugars ekddddddddekekee, linkages s1 o1 s8 o3 s2)
SOD1; A431, 0.12 µM
  target mRNA inhibition: 3%
SOD1; A431, 0.6 µM
  target mRNA inhibition: 3%
SOD1; A431, 3 µM
  target mRNA inhibition: 2%
SOD1; A431, 15 µM
  target mRNA inhibition: 11%

## CTTTGCCCAAGTCATCTGCT (sugars e5 d10 e5, PS)
SOD1; HepG2, 4 µM
  target mRNA inhibition: 56%
SOD1; HepG2, 12 µM
  target mRNA inhibition: 86%

## CCAAGGGAATGTTTATT (sugars e2 k2 d8 k2 e3, PS)
SOD1; HepG2, 4 µM
  target mRNA inhibition: 57%

## CCCAATTACACCACAAG (sugars e2 k2 d8 k2 e3, PS)
SOD1; HepG2, 4 µM
  target mRNA inhibition: 63%

## AGTGCCATACAGGGTTT (sugars e2 k2 d8 k2 e3, PS)
SOD1; HepG2, 5 µM
  target mRNA inhibition: 20%

## CTGACAAGTTTAATACC (sugars e3 k2 d7 k2 e3, PS)
SOD1; HepG2, 3 µM
  target mRNA inhibition: 10%

## TTCTACAGCTAGCAGGA (sugars e3 k2 d7 k2 e3, PS)
SOD1; HepG2, 3 µM
  target mRNA inhibition: 31%

## AGTTTAATACCCATCTG (sugars e2 k2 d9 k2 e2, PS)
SOD1; HepG2, 5 µM
  target mRNA inhibition: 43%

## ACTGGTACAGCCTGCTGTAT (sugars e5 d10 e5, PS)
SOD1; HepG2, 5 µM
  target mRNA inhibition: 22% and 28%

## CTGGATAGAGGATTAAA (sugars e3 k2 d7 k2 e3, PS)
SOD1; HepG2, 3 µM
  target mRNA inhibition: 26%

## TTCAACTGGGAATACT (sugars k3 d10 k3, PS)
MALAT1
  target mRNA inhibition: 17%

## ATATTGTGCTGTTACC (sugars k3 d10 k3, PS)
MALAT1
  target mRNA inhibition: -9%

## ACCTTCCGCCGCCTCT (sugars k3 d10 k3, PS)
MALAT1
  target mRNA inhibition: 33%

## CCGCACAGCTCGGGCG (sugars k3 d10 k3, PS)
MALAT1
  target mRNA inhibition: 14%

## ACATAGTTCAACCCAC (sugars k3 d10 k3, PS)
MALAT1
  target mRNA inhibition: 18%

## AATGGCGGACTTTCTC (sugars k3 d10 k3, PS)
MALAT1
  target mRNA inhibition: 0%

## ATCTTCACCACGAACT (sugars k3 d10 k3, PS)
MALAT1
  target mRNA inhibition: 22%

## TGTAGTTAATGTCAGC (sugars k3 d10 k3, PS)
MALAT1
  target mRNA inhibition: 67% and 42%

## AATTCACCAAGGAGCT (sugars k3 d10 k3, PS)
MALAT1
  target mRNA inhibition: 35%

## CCTGTGGTGGTCTGAT (sugars k3 d10 k3, PS)
MALAT1
  target mRNA inhibition: 54%

## GTAGACCAACTAAGCG (sugars k3 d10 k3, PS)
MALAT1
  target mRNA inhibition: 26%

## GAAATCCCCTAGGGAA (sugars k3 d10 k3, PS)
MALAT1
  target mRNA inhibition: 6%

## TATCCTGATATTGGAT (sugars k3 d10 k3, PS)
MALAT1
  target mRNA inhibition: 24%

## TAGCAGCGGGATCAGA (sugars k3 d10 k3, PS)
MALAT1
  target mRNA inhibition: 32%

## TTATGGAACTTGAATG (sugars k3 d10 k3, PS)
MALAT1
  target mRNA inhibition: 7%

## TCAGCCTTTATCACTC (sugars k3 d10 k3, PS)
MALAT1
  target mRNA inhibition: 13%

## TCTTACTGGGTCTGGC (sugars k3 d10 k3, PS)
MALAT1
  target mRNA inhibition: 45%

## AGGCAAGTCCTCATTA (sugars k3 d10 k3, PS)
MALAT1
  target mRNA inhibition: 16%

## TAGCTTGGCCAAGTCT (sugars k3 d10 k3, PS)
MALAT1
  target mRNA inhibition: 19%

## GCTCCTGACAAATTAT (sugars k3 d10 k3, PS)
MALAT1
  target mRNA inhibition: 17%

## GAAGCCCCTGCGCTGG (sugars k3 d10 k3, PS)
MALAT1
  target mRNA inhibition: 23%

## TACGAAACTCCCCCAT (sugars k3 d10 k3, PS)
MALAT1
  target mRNA inhibition: 6%

## CTGAGGCAAACGAAAC (sugars k3 d10 k3, PS)
MALAT1
  target mRNA inhibition: -6%

## CTGCAGGCTATTACCT (sugars k3 d10 k3, PS)
MALAT1
  target mRNA inhibition: -6%

## CTATATTTAAGGCCTT (sugars k3 d10 k3, PS)
MALAT1
  target mRNA inhibition: 26%

## AGTTTTCAGCAGTAGG (sugars k3 d10 k3, PS)
MALAT1
  target mRNA inhibition: -21%

## CACCGGAATTCGATCA (sugars k3 d10 k3, PS)
MALAT1
  target mRNA inhibition: 20%

## CGCAATTCTCCCTGCG (sugars k3 d10 k3, PS)
MALAT1
  target mRNA inhibition: 23%

## TATTTAGAGGGCCTCT (sugars k3 d10 k3, PS)
MALAT1
  target mRNA inhibition: 34%

## TGAACCCCGTCCTGGA (sugars k3 d10 k3, PS)
MALAT1
  target mRNA inhibition: 3%

## GCAGATTCTGTGTTAT (sugars k3 d10 k3, PS)
MALAT1
  target mRNA inhibition: -2%

## TCTGATAACGAAGAGA (sugars k3 d10 k3, PS)
MALAT1
  target mRNA inhibition: 21%

— the OligoGym collection
